Reference: ChEMBL document CHEMBL1201862, “PubChem BioAssay data set” (2004)
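Test compounds were applied to cells in 96-well plates for 48 hours at 5 doses. Abbreviation: GI50, concentration required for 50% inhibition of growth.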 Activity calls are given as the source filed them. Rule as the data show it: active = GI50 up to about 1.1 µM and inactive = higher.

Assays:
Test in all cases: NCI anticancer screen, dose series, 48 h
U-251 = tested on: U-251
XF498 = tested on: XF498
SNB-78 = tested on: SNB-78
PC-3 = tested on: PC-3
A498 = tested on: A498
DLD-1 = tested on: DLD-1
MOLT-4 = tested on: MOLT-4
SW-620 = tested on: SW-620
SF-268 = tested on: SF-268
DMS-273 = tested on: DMS-273
OVCAR-5 = tested on: OVCAR-5
Malme-3M = tested on: Malme-3M
EKVX = tested on: EKVX
MDA-MB-435 = tested on: MDA-MB-435
SK-OV-3 = tested on: SK-OV-3
HOP-92 = tested on: HOP-92
CAKI-1 = tested on: CAKI-1
KM12 = tested on: KM12
NCI-H226 = tested on: NCI-H226
HOP-18 = tested on: HOP-18
DMS-114 = tested on: DMS-114
HCC 2998 = tested on: HCC 2998
M14 = tested on: M14
SK-MEL-28 = tested on: SK-MEL-28
SF-539 = tested on: SF-539
HL-60 = tested on: HL-60
BT-549 = tested on: BT-549
TK-10 = tested on: TK-10
COLO 205 = tested on: COLO 205
HT-29 = tested on: HT-29
KM-20L2 = tested on: KM-20L2
M19-MEL = tested on: M19-MEL
CCRF-CEM = tested on: CCRF-CEM
Hs-578T = tested on: Hs-578T
MCF7 = tested on: MCF7
UO-31 = tested on: UO-31
SR = tested on: SR
HOP-62 = tested on: HOP-62
OVCAR-4 = tested on: OVCAR-4
NCI-H522 = tested on: NCI-H522
ACHN = tested on: ACHN
HCT-116 = tested on: HCT-116
RPMI-8226 = tested on: RPMI-8226
786-0 = tested on: 786-0
MDA-N = tested on: MDA-N
HCT-15 = tested on: HCT-15
OVCAR-8 = tested on: OVCAR-8
LOX IMVI = tested on: LOX IMVI
UACC-257 = tested on: UACC-257
OVCAR-3 = tested on: OVCAR-3
NCI/ADR-RES = tested on: NCI/ADR-RES
SF-295 = tested on: SF-295
MDA-MB-231 = tested on: MDA-MB-231
SNB-75 = tested on: SNB-75
K562 = tested on: K562
DU-145 = tested on: DU-145
SN12C = tested on: SN12C
UACC-62 = tested on: UACC-62
A549 = tested on: A549
SNB-19 = tested on: SNB-19
NCI-H460 = tested on: NCI-H460
RXF 393 = tested on: RXF 393
SK-MEL-2 = tested on: SK-MEL-2
SK-MEL-5 = tested on: SK-MEL-5
IGROV-1 = tested on: IGROV-1
NCI-H23 = tested on: NCI-H23
LXFL 529 = tested on: LXFL 529

SMILES: CN(C)c1ccc(/N=C2/C=CC(=C(C#N)C#N)c3ccccc32)cc1
- GI50 (U-251): 333 nM (active)
- GI50 (XF498): 261 nM (active)
- GI50 (SNB-78): 479 nM (active)
- GI50 (PC-3): 183 nM (active)
- GI50 (A498): 392 nM (active)
- GI50 (DLD-1): 294 nM (active)
- GI50 (MOLT-4): 196 nM (active)
- GI50 (SW-620): 114 nM (active)
- GI50 (SF-268): 380 nM (active)
- GI50 (DMS-273): 303 nM (active)
- GI50 (OVCAR-5): 326 nM (active)
- GI50 (Malme-3M): 625 nM (active)
- GI50 (EKVX): 955 nM (active)
- GI50 (MDA-MB-435): 39.1 nM (active)
- GI50 (SK-OV-3): 332 nM (active)
- GI50 (HOP-92): 70 nM (active)
- GI50 (CAKI-1): 550 nM (active)
- GI50 (KM12): 381 nM (active)
- GI50 (NCI-H226): 236 nM (active)
- GI50 (HOP-18): 1140 nM (inactive)
- GI50 (DMS-114): 234 nM (active)
- GI50 (HCC 2998): 244 nM (active)
- GI50 (M14): 145 nM (active)
- GI50 (SK-MEL-28): 520 nM (active)
- GI50 (SF-539): 208 nM (active)
- GI50 (HL-60): 54.1 nM (active)
- GI50 (BT-549): 828 nM (active)
- GI50 (TK-10): 1820 nM (inactive)
- GI50 (COLO 205): 95.7 nM (active)
- GI50 (HT-29): 177 nM (active)
- GI50 (KM-20L2): 209 nM (active)
- GI50 (M19-MEL): 904 nM (active)
- GI50 (CCRF-CEM): 94 nM (active)
- GI50 (Hs-578T): 361 nM (active)
- GI50 (MCF7): 178 nM (active)
- GI50 (UO-31): 893 nM (active)
- GI50 (SR): 34.5 nM (active)
- GI50 (HOP-62): 468 nM (active)
- GI50 (OVCAR-4): 906 nM (active)
- GI50 (NCI-H522): 55.5 nM (active)
- GI50 (ACHN): 485 nM (active)
- GI50 (HCT-116): 117 nM (active)
- GI50 (RPMI-8226): 122 nM (active)
- GI50 (786-0): 385 nM (active)
- GI50 (MDA-N): 36.5 nM (active)
- GI50 (HCT-15): 195 nM
- GI50 (OVCAR-8): 213 nM (active)
- GI50 (LOX IMVI): 282 nM (active)
- GI50 (UACC-257): 1490 nM (inactive)
- GI50 (OVCAR-3): 118 nM (active)
- GI50 (NCI/ADR-RES): 97.5 nM (active)
- GI50 (SF-295): 291 nM (active)
- GI50 (MDA-MB-231): 307 nM (active)
- GI50 (SNB-75): 363 nM (active)
- GI50 (K562): 72.3 nM (active)
- GI50 (DU-145): 259 nM (active)
- GI50 (SN12C): 332 nM (active)
- GI50 (UACC-62): 386 nM (active)
- GI50 (A549): 436 nM (active)
- GI50 (SNB-19): 536 nM (active)
- GI50 (NCI-H460): 332 nM (active)
- GI50 (RXF 393): 460 nM (active)
- GI50 (SK-MEL-2): 337 nM (active)
- GI50 (SK-MEL-5): 133 nM (active)
- GI50 (IGROV-1): 222 nM (active)
- GI50 (NCI-H23): 259 nM (active)

SMILES: OC12CCC3(O)c4ccccc4C3C1c1ccccc12 (centres undefined)
- GI50 (U-251): > 100000 nM (inactive)
- GI50 (XF498): > 100000 nM (inactive)
- GI50 (SNB-78): > 100000 nM (inactive)
- GI50 (MOLT-4): > 100000 nM (inactive)
- GI50 (SW-620): > 100000 nM (inactive)
- GI50 (SF-268): > 100000 nM (inactive)
- GI50 (DMS-273): > 100000 nM (inactive)
- GI50 (Malme-3M): > 100000 nM (inactive)
- GI50 (EKVX): > 100000 nM (inactive)
- GI50 (SK-OV-3): > 100000 nM (inactive)
- GI50 (LXFL 529): > 100000 nM (inactive)
- GI50 (KM12): > 100000 nM (inactive)
- GI50 (NCI-H226): > 100000 nM (inactive)
- GI50 (HOP-18): > 100000 nM (inactive)
- GI50 (M14): > 100000 nM (inactive)
- GI50 (SK-MEL-28): > 100000 nM (inactive)
- GI50 (HL-60): > 100000 nM (inactive)
- GI50 (TK-10): > 100000 nM (inactive)
- GI50 (COLO 205): > 100000 nM (inactive)
- GI50 (HT-29): > 100000 nM (inactive)
- GI50 (KM-20L2): > 100000 nM (inactive)
- GI50 (M19-MEL): > 100000 nM (inactive)
- GI50 (CCRF-CEM): > 100000 nM (inactive)
- GI50 (UO-31): > 100000 nM (inactive)
- GI50 (SR): > 100000 nM (inactive)
- GI50 (HOP-62): > 100000 nM (inactive)
- GI50 (OVCAR-4): > 100000 nM (inactive)
- GI50 (NCI-H522): > 100000 nM (inactive)
- GI50 (ACHN): > 100000 nM (inactive)
- GI50 (HCT-116): > 100000 nM (inactive)
- GI50 (RPMI-8226): > 100000 nM (inactive)
- GI50 (786-0): > 100000 nM (inactive)
- GI50 (HCT-15): > 100000 nM
- GI50 (OVCAR-8): > 100000 nM (inactive)
- GI50 (LOX IMVI): > 100000 nM (inactive)
- GI50 (UACC-257): > 100000 nM (inactive)
- GI50 (SF-295): > 100000 nM (inactive)
- GI50 (SNB-75): > 100000 nM (inactive)
- GI50 (K562): > 100000 nM (inactive)
- GI50 (SN12C): > 100000 nM (inactive)
- GI50 (UACC-62): > 100000 nM (inactive)
- GI50 (A549): > 100000 nM (inactive)
- GI50 (SNB-19): > 100000 nM (inactive)
- GI50 (NCI-H460): > 100000 nM (inactive)
- GI50 (RXF 393): > 100000 nM (inactive)
- GI50 (SK-MEL-2): > 100000 nM (inactive)
- GI50 (SK-MEL-5): > 100000 nM (inactive)
- GI50 (NCI-H23): > 100000 nM (inactive)
